The results in this text go back to US9758529B2, “Fused dihydro-4H-pyrazolo[5,1-C][1,4]oxazinyl compounds and analogs for treating CNS disorders” (Sunovion Pharmaceuticals Inc., priority 2015, dated 2017).

For the test, the system named is mice. Kind of test: Neuropharmacological Assay (SmartCube). In kind it is in vivo. The settings on record: i.p. 15 min before behavioral test; 3 doses, most efficacious dose(s) presented.

Regarding `Cl.c1ccc2c3n(nc2c1)CCOC3[C@H]1CNCCO1` (stereo partly drawn) [Compound 42, (2R)-2-(3,4-dihydro-1H-[1,4]oxazino[4,3-b]indazol-1-yl)morpholin-4-ium chloride], the “AD: ADHD (probability of class match)” value is on record as “+ (LOQ≦ + <5%)”, the “AG: analgesic (probability of class match)” value (shortened to “AG: analgesic”) was “+ (LOQ≦ + <5%)”, the “AX: anxiolytic (probability of class match)” value (shortened to “AX: anxiolytic”) was “+ (LOQ≦ + <5%)” and the “CE: cognitive enhancer (probability of class match)” value (“CE: cognitive enhancer” below) is “+ (LOQ≦ + <5%)”. The “DP: anti-depressant (probability of class match)” value (from here on “DP: anti-depressant”) is “+ (LOQ≦ + <5%)”, the “HA: hallucinogen (probability of class match)” value (“HA: hallucinogen” below) is recorded as “+ (LOQ≦ + <5%)”, the “MS: mood stabilizer (probability of class match)” value (“MS: mood stabilizer” below) is “+ (LOQ≦ + <5%)” and the “PS: anti-psychotic (probability of class match)” value (shortened to “PS: anti-psychotic”) was “+ (LOQ≦ + <5%)”. The “SD: sedative hypnotic (probability of class match)” value (“SD: sedative hypnotic” below) is “+ (LOQ≦ + <5%)”, the “UN: uncharacterized CNS activity (probability of class match)” value (“UN: uncharacterized CNS activity” for short) is “+ (LOQ≦ + <5%)” and the “XG: anxiogenic (probability of class match)” value (“XG: anxiogenic” for short) was “+ (LOQ≦ + <5%)”.

For `Cl.c1ccc2c3n(nc2c1)CCOC3[C@@H]1COCCN1` (stereo partly drawn) [Compound 43, (3S)-3-(3,4-dihydro-1H-[1,4]oxazino[4,3-b]indazol-1-yl)morpholin-4-ium chloride], the “AD: ADHD (probability of class match)” value is listed as “+ (LOQ≦ + <5%)”, the “AG: analgesic” value is recorded as “+ (LOQ≦ + <5%)”, the “AX: anxiolytic” value is reported as “+ (LOQ≦ + <5%)” and the “CE: cognitive enhancer” value was “+ (LOQ≦ + <5%)”. Also, the “DP: anti-depressant” value is “+ (LOQ≦ + <5%)”, the “HA: hallucinogen” value is on record as “+ (LOQ≦ + <5%)”, the “MS: mood stabilizer” value was “+ (LOQ≦ + <5%)” and the “PS: anti-psychotic” value is recorded as “+ (LOQ≦ + <5%)”. For the same compound, the “SD: sedative hypnotic” value is reported as “+ (LOQ≦ + <5%)”, the “UN: uncharacterized CNS activity” value is “+ (LOQ≦ + <5%)” and the “XG: anxiogenic” value is recorded as “+ (LOQ≦ + <5%)”.

For the compound `Cl.c1ccc2c3n(nc2c1)CCOC31CCNC1` (centres unmarked) [Compound 44, 3′,4′-dihydrospiro[pyrrolidine-3,1′-[1,4]oxazino[4,3-b]indazol]-1-ium chloride], the “AD: ADHD (probability of class match)” value is given as “+ (LOQ≦ + <5%)”, the “AG: analgesic” value is reported as “++ (5%≦ ++ <25%)”, the “AX: anxiolytic” value is “+++ (25%≦ +++ <50%)” and the “CE: cognitive enhancer” value is reported as “++ (5%≦ ++ <25%)”. Moreover, the “DP: anti-depressant” value was “++ (5%≦ ++ <25%)”, the “HA: hallucinogen” value is given as “+ (LOQ≦ + <5%)”, the “MS: mood stabilizer” value is “+ (LOQ≦ + <5%)” and the “PS: anti-psychotic” value is reported as “++ (5%≦ ++ <25%)”. Besides, the “SD: sedative hypnotic” value was “+ (LOQ≦ + <5%)”, the “UN: uncharacterized CNS activity” value is on record as “+ (LOQ≦ + <5%)” and the “XG: anxiogenic” value is recorded as “+ (LOQ≦ + <5%)”.

In the case of `CCN(C)C[C@@H]1OCCn2nc3ccccc3c21.Cl` [Compound 49, N—(((S)-3,4-dihydro-1H-[1,4]oxazino[4,3-b]indazol-1-yl)methyl)-N-methylethanaminium chloride], the “AD: ADHD (probability of class match)” value is listed as “+ (LOQ≦ + <5%)”, the “AG: analgesic” value is “+++ (25%≦ +++ <50%)”, the “AX: anxiolytic” value was “++ (5%≦ ++ <25%)” and the “CE: cognitive enhancer” value is given as “++ (5%≦ ++ <25%)”. Moreover, the “DP: anti-depressant” value is “++ (5%≦ ++ <25%)”, the “HA: hallucinogen” value was “+ (LOQ≦ + <5%)”, the “MS: mood stabilizer” value was “+ (LOQ≦ + <5%)” and the “PS: anti-psychotic” value is given as “+ (LOQ≦ + <5%)”. Besides, the “SD: sedative hypnotic” value is “++ (5%≦ ++ <25%)”, the “UN: uncharacterized CNS activity” value is recorded as “+ (LOQ≦ + <5%)” and the “XG: anxiogenic” value is “+ (LOQ≦ + <5%)”.

Regarding `CCN(C)C[C@H]1OCCn2nc3ccccc3c21.Cl` [Compound 50, N—(((R)-3,4-dihydro-1H-[1,4]oxazino[4,3-b]indazol-1-yl)methyl)-N-methylethanaminium chloride], the “AD: ADHD (probability of class match)” value is “++ (5%≦ ++ <25%)”, the “AG: analgesic” value was “+ (LOQ≦ + <5%)”, the “AX: anxiolytic” value is on record as “+++ (25%≦ +++ <50%)” and the “CE: cognitive enhancer” value was “+ (LOQ≦ + <5%)”. Also, the “DP: anti-depressant” value is given as “++++ (50%≦ ++++)”, the “HA: hallucinogen” value was “++ (5%≦ ++ <25%)”, the “MS: mood stabilizer” value is “+ (LOQ≦ + <5%)” and the “PS: anti-psychotic” value is “+ (LOQ≦ + <5%)”. In addition, the “SD: sedative hypnotic” value is “+ (LOQ≦ + <5%)”, the “UN: uncharacterized CNS activity” value is listed as “+ (LOQ≦ + <5%)” and the “XG: anxiogenic” value is “+ (LOQ≦ + <5%)”.

`CNCC1OCCCn2nc3ccccc3c21.Cl` (centres unmarked) [Compound 51, 1-(4,5-dihydro-1H,3H-[1,4]oxazepino[4,3-b]indazol-1-yl)-N-methylmethanaminium chloride]: the “AD: ADHD (probability of class match)” value was “++ (5%≦ ++ <25%)”, the “AG: analgesic” value is given as “+ (LOQ≦ + <5%)”, the “AX: anxiolytic” value is “++ (5%≦ ++ <25%)” and the “CE: cognitive enhancer” value was “+ (LOQ≦ + <5%)”. The “DP: anti-depressant” value is given as “+++ (25%≦ +++ <50%)”, the “HA: hallucinogen” value is reported as “+ (LOQ≦ + <5%)”, the “MS: mood stabilizer” value was “+ (LOQ≦ + <5%)” and the “PS: anti-psychotic” value is reported as “+ (LOQ≦ + <5%)”. The “SD: sedative hypnotic” value is on record as “+ (LOQ≦ + <5%)”, the “UN: uncharacterized CNS activity” value is recorded as “+ (LOQ≦ + <5%)” and the “XG: anxiogenic” value was “+ (LOQ≦ + <5%)”.

For the compound `CN(C)CC1OCCCn2nc3ccccc3c21.Cl` (centres unmarked) [Compound 52, 1-(4,5-dihydro-1H,3H-[1,4]oxazepino[4,3-b]indazol-1-yl)-N,N-dimethylmethanaminium chloride], the “AD: ADHD (probability of class match)” value is on record as “+ (LOQ≦ + <5%)”, the “AG: analgesic” value was “+ (LOQ≦ + <5%)”, the “AX: anxiolytic” value is listed as “++ (5%≦ ++ <25%)” and the “CE: cognitive enhancer” value was “+ (LOQ≦ + <5%)”. The “DP: anti-depressant” value is “++ (5%≦ ++ <25%)”, the “HA: hallucinogen” value is reported as “+ (LOQ≦ + <5%)”, the “MS: mood stabilizer” value is recorded as “+ (LOQ≦ + <5%)” and the “PS: anti-psychotic” value is on record as “+ (LOQ≦ + <5%)”. Moreover, the “SD: sedative hypnotic” value is given as “+ (LOQ≦ + <5%)”, the “UN: uncharacterized CNS activity” value is on record as “++ (5%≦ ++ <25%)” and the “XG: anxiogenic” value is given as “+ (LOQ≦ + <5%)”.

Turning to `CCN(C)CC1OCCCn2nc3ccccc3c21.Cl` (centres unmarked) [Compound 53, N-((4,5-dihydro-1H,3H-[1,4]oxazepino[4,3-b]indazol-1-yl)methyl)-N-methylethanaminium chloride], the “AD: ADHD (probability of class match)” value was “+ (LOQ≦ + <5%)”, the “AG: analgesic” value was “+ (LOQ≦ + <5%)”, the “AX: anxiolytic” value is recorded as “++ (5%≦ ++ <25%)” and the “CE: cognitive enhancer” value is “+ (LOQ≦ + <5%)”. Further, the “DP: anti-depressant” value is listed as “++ (5%≦ ++ <25%)”, the “HA: hallucinogen” value is “+ (LOQ≦ + <5%)”, the “MS: mood stabilizer” value was “+ (LOQ≦ + <5%)” and the “PS: anti-psychotic” value is “+ (LOQ≦ + <5%)”. Besides, the “SD: sedative hypnotic” value was “++ (5%≦ ++ <25%)”, the “UN: uncharacterized CNS activity” value is given as “++ (5%≦ ++ <25%)” and the “XG: anxiogenic” value is “+ (LOQ≦ + <5%)”.

Regarding `CC(C)N(C)CC1OCCCn2nc3ccccc3c21.Cl` (centres unmarked) [Compound 54, N-((4,5-dihydro-1H,3H-[1,4]oxazepino[4,3-b]indazol-1-yl)methyl)-N-methylpropan-2-aminium chloride], the “AD: ADHD (probability of class match)” value is listed as “+ (LOQ≦ + <5%)”, the “AG: analgesic” value is recorded as “+ (LOQ≦ + <5%)”, the “AX: anxiolytic” value was “++ (5%≦ ++ <25%)” and the “CE: cognitive enhancer” value is “+ (LOQ≦ + <5%)”. Besides, the “DP: anti-depressant” value is on record as “+ (LOQ≦ + <5%)”, the “HA: hallucinogen” value was “+ (LOQ≦ + <5%)”, the “MS: mood stabilizer” value is recorded as “+ (LOQ≦ + <5%)” and the “PS: anti-psychotic” value is “+ (LOQ≦ + <5%)”. For the same compound, the “SD: sedative hypnotic” value is listed as “+ (LOQ≦ + <5%)”, the “UN: uncharacterized CNS activity” value was “+ (LOQ≦ + <5%)” and the “XG: anxiogenic” value was “+ (LOQ≦ + <5%)”.

Turning to `CN(CC1OCCCn2nc3ccccc3c21)C1CCC1.Cl` (centres unmarked) [Compound 55, N-((4,5-dihydro-1H,3H-[1,4]oxazepino[4,3-b]indazol-1-yl)methyl)-N-methylcyclobutanaminium chloride], the “AD: ADHD (probability of class match)” value is listed as “+ (LOQ≦ + <5%)”, the “AG: analgesic” value is on record as “+ (LOQ≦ + <5%)”, the “AX: anxiolytic” value was “++ (5%≦ ++ <25%)” and the “CE: cognitive enhancer” value is “+ (LOQ≦ + <5%)”. For the same compound, the “DP: anti-depressant” value is on record as “+ (LOQ≦ + <5%)”, the “HA: hallucinogen” value is “+ (LOQ≦ + <5%)”, the “MS: mood stabilizer” value is listed as “+ (LOQ≦ + <5%)” and the “PS: anti-psychotic” value is listed as “+ (LOQ≦ + <5%)”. In addition, the “SD: sedative hypnotic” value is given as “+ (LOQ≦ + <5%)”, the “UN: uncharacterized CNS activity” value is given as “+++ (25%≦ +++ <50%)” and the “XG: anxiogenic” value is reported as “+ (LOQ≦ + <5%)”.
